From ChEMBL document CHEMBL1201862, “PubChem BioAssay data set” (2004)
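Growth conditions: 96-well plates. Treatment: test compound, 48 hours, 5 concentrations. Analysis: linear interpolation between bracketing concentrations; unreached endpoints set to highest concentration. Abbreviation: GI50, concentration required for 50% inhibition of growth.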 The source made the active and inactive calls. No stated cut-off is given here; in the data, active = GI50 up to about 1.1 µM and inactive = higher.

How the values were obtained:
Experiment in all cases: growth of human tumour cells (NCI), 48 h
DU-145 = test system: DU-145
OVCAR-8 = test system: OVCAR-8
OVCAR-5 = test system: OVCAR-5
SK-MEL-28 = test system: SK-MEL-28
NCI/ADR-RES = test system: NCI/ADR-RES
RPMI-8226 = test system: RPMI-8226
RXF 393 = test system: RXF 393
HL-60 = test system: HL-60
HCC 2998 = test system: HCC 2998
NCI-H226 = test system: NCI-H226
K562 = test system: K562
UACC-62 = test system: UACC-62
Malme-3M = test system: Malme-3M
MOLT-4 = test system: MOLT-4
HCT-116 = test system: HCT-116
A549 = test system: A549
MCF7 = test system: MCF7
SNB-19 = test system: SNB-19
NCI-H23 = test system: NCI-H23
SF-539 = test system: SF-539

SMILES	GI50 (DU-145)	GI50 (OVCAR-8)	GI50 (OVCAR-5)	GI50 (SK-MEL-28)	GI50 (NCI/ADR-RES)	GI50 (RPMI-8226)	GI50 (RXF 393)	GI50 (HL-60)	GI50 (HCC 2998)	GI50 (NCI-H226)	GI50 (K562)	GI50 (UACC-62)	GI50 (Malme-3M)	GI50 (MOLT-4)	GI50 (HCT-116)	GI50 (A549)	GI50 (MCF7)	GI50 (SNB-19)	GI50 (NCI-H23)	GI50 (SF-539)
CC(C)(C)C1=NN=C2c3ccccc3C(=O)C21 (stereo not given)	31.3 µM (inactive)	43.6 µM (inactive)	51.8 µM (inactive)	55.8 µM (inactive)	83.9 µM (inactive)	32.1 µM (inactive)	81.3 µM (inactive)	34.3 µM (inactive)	4.6 µM (inactive)	41.7 µM (inactive)	35.2 µM (inactive)	27.4 µM (inactive)	36.2 µM (inactive)	22.4 µM (inactive)	> 100 µM (inactive)	45.1 µM (inactive)	51.1 µM (inactive)	91.2 µM (inactive)	49 µM (inactive)	38.4 µM (inactive)
Cc1c(CNc2ccc(Cl)c(Cl)c2Cl)cnc2nc(N)nc(N)c12	0.294 µM (active)	0.053 µM (active)	11 µM (inactive)	5.33 µM (inactive)	> 100 µM (inactive)	2.08 µM (inactive)	11.9 µM (inactive)	0.607 µM (active)	3.17 µM (inactive)	19.5 µM (inactive)	< 0.0132 µM (active)	0.0771 µM (active)	3.12 µM (inactive)	0.164 µM (active)	0.0208 µM (active)	0.0352 µM (active)	0.792 µM (active)	14.6 µM (inactive)	0.255 µM (active)	0.483 µM (active)
CC(=O)OCC1OC(n2c(-c3ccc(C)cc3)cc(-c3ccccc3)c(C#N)c2=S)C(OC(C)=O)C(OC(C)=O)C1OC(C)=O (stereo not given)	> 100 µM (inactive)	> 100 µM (inactive)	> 100 µM (inactive)	> 100 µM (inactive)	> 100 µM (inactive)	> 100 µM (inactive)	> 100 µM (inactive)	> 100 µM (inactive)	> 100 µM (inactive)	> 100 µM (inactive)	> 100 µM (inactive)	> 100 µM (inactive)	> 100 µM (inactive)	> 100 µM (inactive)	> 100 µM (inactive)	> 100 µM (inactive)	> 100 µM (inactive)	> 100 µM (inactive)	> 100 µM (inactive)	> 100 µM (inactive)
CCOC(=O)/C=C(\C(=O)OCC)n1cc(C)c(=O)n(Cc2cnnn2COCCOC(C)=O)c1=O	21.2 µM (inactive)	7.03 µM (inactive)	17.1 µM (inactive)	9.89 µM (inactive)	16.1 µM (inactive)	6.24 µM (inactive)	3.28 µM (inactive)	3.15 µM (inactive)	16.6 µM (inactive)	9.59 µM (inactive)	3.4 µM (inactive)	15.4 µM (inactive)	1.48 µM (inactive)	2.57 µM (inactive)	9.42 µM (inactive)	21.6 µM (inactive)	5.31 µM (inactive)	35.2 µM (inactive)	17.5 µM (inactive)	2.2 µM (inactive)
O=[N+]([O-])/C(C(Cl)=C(Cl)Cl)=C(/Sc1ccccc1)N1CCOCC1	12.6 µM (inactive)	1.89 µM (inactive)	16.4 µM (inactive)	4.74 µM (inactive)	6.28 µM (inactive)	2.62 µM (inactive)	1.92 µM (inactive)	1.99 µM (inactive)	15.3 µM (inactive)	11.4 µM (inactive)	1.74 µM (inactive)	3.62 µM (inactive)	5.13 µM (inactive)	2 µM (inactive)	1.67 µM (inactive)	18.6 µM (inactive)	2.57 µM (inactive)	6.75 µM (inactive)	11.3 µM (inactive)	6.03 µM (inactive)
Cc1c(/N=N/c2ccccc2)c(-c2ccccc2)n(C2OC(CO)C(O)C(O)C2O)c(=S)c1C#N (stereo not given)	6.17 µM (inactive)	3.99 µM (inactive)	13.8 µM (inactive)	4.03 µM (inactive)	17.3 µM (inactive)	4.06 µM (inactive)	2.5 µM (inactive)	3.66 µM (inactive)	5.3 µM (inactive)	10.8 µM (inactive)	3.21 µM (inactive)	3.6 µM (inactive)	6.67 µM (inactive)	1.95 µM (inactive)	–	5.83 µM (inactive)	4.74 µM (inactive)	7.64 µM (inactive)	3.36 µM (inactive)	5.13 µM (inactive)
CC1=NC(C)(COC(=O)C2(C)NC(C)(CO)CO2)COC1=O (stereo not given)	> 100 µM (inactive)	> 100 µM (inactive)	> 100 µM (inactive)	> 100 µM (inactive)	> 100 µM (inactive)	> 100 µM (inactive)	> 100 µM (inactive)	> 100 µM (inactive)	> 100 µM (inactive)	> 100 µM (inactive)	> 100 µM (inactive)	> 100 µM (inactive)	> 100 µM (inactive)	> 100 µM (inactive)	> 100 µM (inactive)	> 100 µM (inactive)	> 100 µM (inactive)	> 100 µM (inactive)	> 100 µM (inactive)	> 100 µM (inactive)
O=c1[nH]c(=O)c2c3n(cc2[nH]1)CCCCC3	> 100 µM (inactive)	> 100 µM (inactive)	> 100 µM (inactive)	> 100 µM (inactive)	> 100 µM (inactive)	> 100 µM (inactive)	> 100 µM (inactive)	> 100 µM (inactive)	> 100 µM (inactive)	> 100 µM (inactive)	> 100 µM (inactive)	> 100 µM (inactive)	> 100 µM (inactive)	> 100 µM (inactive)	> 100 µM (inactive)	> 100 µM (inactive)	> 100 µM (inactive)	> 100 µM (inactive)	> 100 µM (inactive)	–
N#Cc1cnn2c1n[n+]([O-])c1ccc(Cl)cc12	14.9 µM (inactive)	11.5 µM (inactive)	> 45.1 µM (inactive)	13.2 µM (inactive)	9.68 µM (inactive)	23.8 µM (inactive)	15 µM (inactive)	2.86 µM (inactive)	1.92 µM (inactive)	18.6 µM (inactive)	1.71 µM (inactive)	4.49 µM (inactive)	7.69 µM (inactive)	7.31 µM (inactive)	8.75 µM (inactive)	14.1 µM (inactive)	28.7 µM (inactive)	3.11 µM (inactive)	5.7 µM (inactive)	18.2 µM (inactive)
CC(=O)n1[nH]c(=O)n(-c2ccccc2)c1=O	> 100 µM (inactive)	> 100 µM (inactive)	> 100 µM (inactive)	> 100 µM (inactive)	> 100 µM (inactive)	> 100 µM (inactive)	> 100 µM (inactive)	> 100 µM (inactive)	> 100 µM (inactive)	> 100 µM (inactive)	> 100 µM (inactive)	> 100 µM (inactive)	> 100 µM (inactive)	> 100 µM (inactive)	> 100 µM (inactive)	> 100 µM (inactive)	> 100 µM (inactive)	> 100 µM (inactive)	> 100 µM (inactive)	–
COc1ccc(/C=C(\Cl)c2ccc(OC)c(OC)c2)cc1OC	> 100 µM (inactive)	> 100 µM (inactive)	> 100 µM (inactive)	> 100 µM (inactive)	> 100 µM (inactive)	> 100 µM (inactive)	> 90.4 µM (inactive)	> 100 µM (inactive)	> 100 µM (inactive)	> 100 µM (inactive)	> 100 µM (inactive)	> 100 µM (inactive)	> 100 µM (inactive)	> 100 µM (inactive)	> 100 µM (inactive)	> 100 µM (inactive)	> 100 µM (inactive)	> 100 µM (inactive)	> 100 µM (inactive)	> 100 µM (inactive)
Brc1c(C#CCC2CCCCC2)ccc(C#CCC2CCCCC2)c1Br	> 100 µM (inactive)	> 100 µM (inactive)	> 100 µM (inactive)	> 100 µM (inactive)	> 100 µM (inactive)	> 100 µM (inactive)	> 100 µM (inactive)	> 100 µM (inactive)	> 100 µM (inactive)	> 100 µM (inactive)	> 100 µM (inactive)	> 100 µM (inactive)	> 100 µM (inactive)	> 100 µM (inactive)	–	> 100 µM (inactive)	> 100 µM (inactive)	> 100 µM (inactive)	–	> 100 µM (inactive)
COC(=O)c1c(C(=O)OC)c(C(c2ccccc2)c2ccccc2)n(-c2ccccc2)c1Cl	> 10 µM (inactive)	> 10 µM (inactive)	> 10 µM (inactive)	> 10 µM (inactive)	4.24 µM (inactive)	3.35 µM (inactive)	> 10 µM (inactive)	4.06 µM (inactive)	> 10 µM (inactive)	> 10 µM (inactive)	4.14 µM (inactive)	9.33 µM (inactive)	5.79 µM (inactive)	2.24 µM (inactive)	3.7 µM (inactive)	7.03 µM (inactive)	7.76 µM (inactive)	> 10 µM (inactive)	6.76 µM (inactive)	> 10 µM (inactive)
CCOC(=O)C(NC(=O)c1ccccc1)(Nc1ccc(S(=O)(=O)Nc2ccc(OC)nn2)cc1)C(F)(F)F (stereo not given)	> 100 µM (inactive)	> 100 µM (inactive)	> 100 µM (inactive)	> 100 µM (inactive)	> 100 µM (inactive)	> 100 µM (inactive)	> 100 µM (inactive)	> 100 µM (inactive)	> 100 µM (inactive)	> 100 µM (inactive)	> 100 µM (inactive)	> 100 µM (inactive)	> 100 µM (inactive)	> 100 µM (inactive)	> 100 µM (inactive)	> 100 µM (inactive)	> 100 µM (inactive)	> 100 µM (inactive)	> 100 µM (inactive)	> 100 µM (inactive)
